Measured values from ChEMBL document CHEMBL1157481, “Microwave-assisted synthesis of 5-aminopyrazol-4-yl ketones and the p38(MAPK) inhibitor RO3201195 for study in Werner syndrome cells” (Bioorg Med Chem Lett, 2008).
Calls of active or inactive are those of the source. The rule behind the calls is not given here.

Target: Mitogen-activated protein kinase 9 (Homo sapiens) (UniProt P45984)
Experiment: Inhibition of JNK2 in hTERT-immortalized human HCA2 cells assessed as c-jun phosphorylation upto 50 uM by ELISA in presence of anisomycin
Format: cell-based

Sequence of Mitogen-activated protein kinase 9 (Homo sapiens) (P45984 whole entry, looked up): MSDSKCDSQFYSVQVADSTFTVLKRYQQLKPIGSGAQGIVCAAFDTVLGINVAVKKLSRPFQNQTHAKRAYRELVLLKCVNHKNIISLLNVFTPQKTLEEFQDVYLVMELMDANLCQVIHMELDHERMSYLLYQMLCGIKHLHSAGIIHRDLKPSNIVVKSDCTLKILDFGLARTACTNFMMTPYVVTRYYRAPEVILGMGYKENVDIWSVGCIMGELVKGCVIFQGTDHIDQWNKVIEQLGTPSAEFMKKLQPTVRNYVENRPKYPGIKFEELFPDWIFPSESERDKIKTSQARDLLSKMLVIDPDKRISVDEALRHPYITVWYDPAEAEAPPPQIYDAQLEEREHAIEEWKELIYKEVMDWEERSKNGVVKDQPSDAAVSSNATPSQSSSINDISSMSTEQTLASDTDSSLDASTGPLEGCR

Nc1c(C(=O)c2cccc(OC[C@@H](O)CO)c2)cnn1-c1ccc(F)cc1
Activity: inactive
